Assay results taken from PubChem BioAssay (NCI).
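Compound exposure: 48 hours, 5 concentrations, 96-well plates. At the GI50, growth is halved. Definition used: TGI = concentration required for complete inhibition of growth.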

Experiments:
Experiment in all cases: NCI tumour cell line growth inhibition, 48 h
DU-145 prostate = system: DU-145 prostate
SF-539 CNS = system: SF-539 CNS
OVCAR-4 ovarian = system: OVCAR-4 ovarian
SF-268 CNS = system: SF-268 CNS
786-0 renal = system: 786-0 renal
BT-549 breast = system: BT-549 breast
KM12 colon = system: KM12 colon
UO-31 renal = system: UO-31 renal
U251 CNS = system: U251 CNS
SR leukemia = system: SR leukemia

Structure (SMILES)	GI50 (DU-145 prostate)	TGI (DU-145 prostate)	GI50 (SF-539 CNS)	TGI (SF-539 CNS)	GI50 (OVCAR-4 ovarian)	TGI (OVCAR-4 ovarian)	GI50 (SF-268 CNS)	TGI (SF-268 CNS)	GI50 (786-0 renal)	TGI (786-0 renal)	GI50 (BT-549 breast)	TGI (BT-549 breast)	GI50 (KM12 colon)	TGI (KM12 colon)	GI50 (UO-31 renal)	TGI (UO-31 renal)	TGI (U251 CNS)	TGI (SR leukemia)	GI50 (U251 CNS)	GI50 (SR leukemia)
NCCOCCOCCNc1nc(-c2ccc(Cl)cc2)nc(N2CCN(c3ccccn3)CC2)n1	2.17 µM	4.51 µM	2.41 µM	5.18 µM	2.78 µM	10.5 µM	3.24 µM	12.9 µM	1.83 µM	3.61 µM	4.48 µM	21.2 µM	1.84 µM	3.5 µM	2.07 µM	5.02 µM				
Cc1c(NC(=S)NC(=O)c2ccc([N+](=O)[O-])cc2)c(=O)n(-c2ccccc2)n1C				> 100 µM		> 100 µM		> 100 µM		> 100 µM				> 100 µM		> 100 µM	> 100 µM	> 100 µM		
CCCCCC[C@H](C)Nc1nc2ccccc2c2occc12	3.34 µM	14 µM	4.16 µM	15.2 µM			> 100 µM	> 100 µM	9.87 µM	21.7 µM	4.38 µM	18.5 µM	10.6 µM	32.3 µM	4.55 µM	19.2 µM	21.7 µM		9.94 µM	
COC(=O)c1c2c(cc3c1CC1(Cc4cc5c(c(C(C)=O)c4C1)CCC5)C3)CCC2 (configuration not stated)				> 100 µM		> 100 µM		> 100 µM		> 100 µM				> 100 µM		> 100 µM	> 100 µM	> 100 µM		
C=CCC1=C(C)C[C@@H]2CCC(=O)C=C12				> 100 µM		> 100 µM		> 100 µM		> 100 µM				> 100 µM		> 100 µM	> 100 µM			
C=CC(=O)Nc1cc(N2CCN(CC)CC2)ccc1Nc1cc(N(C)C(=O)Nc2c(Cl)c(OC)cc(OC)c2Cl)ncn1	4.27 µM	16.4 µM	3.53 µM	15.2 µM	5.35 µM	22.9 µM	5.53 µM	27.7 µM	2.97 µM	12.1 µM	3.07 µM	15.1 µM	3.09 µM	10.3 µM	8.53 µM	22.2 µM				
CC1=NN(C(=O)c2ccc(Cl)cc2)C(=O)/C1=C/c1ccccc1O				> 100 µM		> 100 µM		> 100 µM		> 100 µM				> 100 µM		> 100 µM	> 100 µM			
N.N.N.N.N.O=[N+]([O-])[O-].[Co+3].[O-][Cl+3]([O-])([O-])[O-]			> 100 µM	> 100 µM	> 100 µM	> 100 µM	> 100 µM	> 100 µM	> 100 µM	> 100 µM			> 100 µM	> 100 µM	> 100 µM	> 100 µM	> 100 µM		> 100 µM	
Cc1cc(N(CCC#N)CCC#N)ccc1N=Nc1ccc(Br)cc1				> 51.9 µM		> 100 µM		> 100 µM		38.3 µM				> 100 µM		> 57.6 µM	> 53 µM			
COc1ccc(/C(Cl)=C/c2cc(OC)ccc2OC)cc1				> 100 µM		> 100 µM		> 100 µM		> 100 µM						> 100 µM	> 100 µM	> 100 µM		
CC(=O)OCC(=O)[C@@]12OC(C)(C)O[C@@H]1C[C@H]1[C@@H]3CC(C=O)=C4C=C(OCCCl)CC[C@]4(C)[C@@]3(F)[C@@H](O)C[C@@]12C				80.9 µM		> 100 µM		> 100 µM		> 100 µM				> 100 µM		> 100 µM	48.5 µM	> 100 µM		
CC(=O)O[C@]1(C)OC(=O)[C@@H](CC(C)C)N1[N+](=O)[O-]				> 100 µM		> 100 µM				> 100 µM				> 100 µM		> 100 µM	> 100 µM	> 100 µM		
CC(C)(C)C(=CS(=O)/N=C/c1ccccc1)C(C)(C)C (configuration not stated)				> 100 µM		70.9 µM		> 100 µM		> 100 µM				> 100 µM		95.7 µM	84.7 µM	58.9 µM		
O=c1[nH]c2ccccc2n1CCCN1CCC(n2c(=O)[nH]c3cc(Cl)ccc32)CC1		39.2 µM				37.9 µM				30 µM		33.2 µM		30.6 µM		20.3 µM				
O=c1cc(N/N=C/c2ccc(F)cc2)c2cc(Cl)ccc2[nH]1	33.9 µM	> 100 µM	23.6 µM	78.2 µM			33.6 µM	> 100 µM	26.3 µM	> 100 µM	15.8 µM	44.5 µM	22 µM	> 100 µM	21.9 µM	> 100 µM	98.4 µM	85.6 µM	21.1 µM	24.5 µM
CCOC(=O)N1CCc2cc(OC)c(OC)cc2/C1=C\c1ccc(OC)c(OC)c1				59.2 µM				> 100 µM		52.1 µM				85.6 µM		69.5 µM	92.9 µM	> 100 µM		
C=CCO/N=C(\OC(=O)c1ccc([N+](=O)[O-])cc1)c1ccccc1				> 100 µM		> 100 µM		> 100 µM		> 100 µM				> 100 µM		> 100 µM	> 100 µM			
CC(=O)[O-].[Mn+3].[O-]c1ccccc1C=NCCNCCN=Cc1ccccc1[O-]			> 100 µM	> 100 µM	> 100 µM	> 100 µM	> 100 µM	> 100 µM	> 100 µM	> 100 µM			> 100 µM	> 100 µM	> 100 µM	> 100 µM	> 100 µM		> 100 µM	
COc1ccc(C(=O)C(CC2C(=O)NC(=O)NC2=O)c2ccc(OC)cc2)cc1 (configuration not stated)				> 100 µM		> 100 µM		> 100 µM		> 100 µM				> 100 µM		> 100 µM	> 100 µM	> 100 µM		
O=C(c1ccccc1)c1c(NCC(O)CN2CCOCC2)n(Cc2ccccc2)c(=O)n(Cc2ccccc2)c1=O (configuration not stated)	35.2 µM	> 77.5 µM	> 68 µM	> 100 µM	> 45.4 µM	> 95.3 µM	> 79.8 µM	> 100 µM	54.1 µM	> 100 µM	29.3 µM	> 100 µM	40.4 µM	> 100 µM	34.5 µM	> 100 µM	> 100 µM		29.2 µM	
